{"source": "patent US20260206810A1", "about": "“NATURAL SWEETENER COMPOSITIONS AND USES THEREOF” (Firmenich SA, priority 2022, published 2026)", "assay": "Visual assessment of sweetener solubilization (solution aspect) at room temperature", "assay_type": "physicochemical", "protocol": "Unless otherwise stated, the inventive compositions of the examples were prepared according to the following general procedure. Solvent A, Solvent B (or mix of solvents B) and solvent C (or mix of solvents C) were mixed using a mechanical stirrer at room temperature (22° C.) to obtain a clear one-phase liquid. A solid natural sweetener in pure form or a blend of solid natural sweeteners was then added to the transparent solvent mixture and mechanically stirred. Mechanical stirring was maintained until the complete solubilization of the sweetener(s) at room temperature was observed. Comparative compositions were prepared analogously. The tables in the following examples summarize the components used in the inventive and comparative compositions.\nComparative and inventive compositions were prepared according to Table 1 below. The solubilization of the sweetener was assessed visually as a function of time. The stability of the concentrated solution (transparency of the solution) was also assessed visually at room temperature (22° C.) as a function of time.", "note": "Several values for one entry are separate records, joined by “and”; a condition that tells them apart may be missing. Identical values can stand only once."}
{"compound": "C=C1C[C@@]23CC[C@H]4[C@@](C)(CCC[C@@]4(C)C(=O)O[C@@H]4O[C@H](CO)[C@@H](O)[C@H](O)[C@H]4O)[C@@H]2CC[C@]1(O[C@@H]1O[C@H](CO)[C@@H](O)[C@H](O[C@@H]2O[C@H](CO)[C@@H](O)[C@H](O)[C@H]2O)[C@H]1O[C@@H]1O[C@H](CO)[C@@H](O)[C@H](O)[C@H]1O)C3", "note": "[Reb A (99.5%), Rebaudioside A]", "values": [{"measurement": "Amount dispersed giving non-complete solubilization and a cloudy solution", "setting": "binary mix ethanol/water 80/20, after 1 day at room temperature (22° C.)", "result": 3, "unit": "% wt"}, {"measurement": "Amount dispersed giving non-complete solubilization and a cloudy solution", "setting": "binary mix glycerol/water 80/20, after 1 day at room temperature (22° C.)", "result": "2 % wt and 1 % wt"}, {"measurement": "Amount dispersed giving non-complete solubilization and a cloudy solution", "setting": "binary mix propylene glycol/glycerol 33/66, after 2 days at room temperature (22° C.)", "result": 4.6, "unit": "% wt"}, {"measurement": "Amount of sweetener that was soluble", "setting": "binary mix propylene glycol/glycerol 33/66, room temperature (22° C.)", "result": 2.6, "unit": "% wt"}, {"measurement": "Amount dispersed giving non-complete solubilization and a cloudy solution", "setting": "binary mix propylene glycol/glycerol 50/50, after 2 days at room temperature (22° C.)", "result": 4.6, "unit": "% wt"}, {"measurement": "Amount of sweetener that was soluble", "setting": "binary mix propylene glycol/glycerol 50/50, room temperature (22° C.)", "result": 3.8, "unit": "% wt"}, {"measurement": "Amount dispersed giving non-complete solubilization and a cloudy solution", "setting": "binary mix propylene glycol/water 80/20, after 2 days at room temperature (22° C.)", "result": 11, "unit": "% wt"}, {"measurement": "Amount of sweetener that was soluble", "setting": "binary mix propylene glycol/water 80/20, room temperature (22° C.)", "result": 10, "unit": "% wt"}, {"measurement": "Amount of sweetener solubilized", "setting": "glycerol/water 80/20 with 48% wt of glycerol replaced by ethanol", "result": 12, "unit": "%"}]}
